Experimental data from ChEMBL document CHEMBL3792297, “Studies on phenothiazines: New microtubule-interacting compounds with phenothiazine A-ring as potent antineoplastic agents” (Bioorg Med Chem, 2016).

Assays:
[1] = Growth inhibition of human OVCAR3 cells after 48 hrs by SRB assay; format: functional; details: OVCAR-3, 48 h
[2] = Growth inhibition of human HCC2998 cells after 48 hrs by SRB assay; format: functional; details: HCC 2998, 48 h
SK-MEL-5 = assay: Growth inhibition of human SK-MEL-5 cells after 48 hrs by SRB assay; format: functional; details: SK-MEL-5, 48 h
SN12C = assay: Growth inhibition of human SN12C cells after 48 hrs by SRB assay; format: functional
[3] = Growth inhibition of human IGROV1 cells after 48 hrs by SRB assay; format: functional; details: IGROV-1, 48 h
NCI-H522 = assay: Growth inhibition of human NCI-H522 cells after 48 hrs by SRB assay; format: functional; details: NCI-H522, 48 h
786-0 = assay: Growth inhibition of human 786-0 cells after 48 hrs by SRB assay; format: functional; details: 786-0, 48 h
Malme-3M = assay: Growth inhibition of human MALME-3M cells after 48 hrs by SRB assay; format: functional
A498 = assay: Growth inhibition of human A498 cells after 48 hrs by SRB assay; format: functional; details: A498, 48 h
[4] = Growth inhibition of human RPMI8226 cells after 48 hrs by SRB assay; format: functional; details: RPMI-8226, 48 h
[5] = Growth inhibition of human Hs 578T cells after 48 hrs by SRB assay; format: functional
M14 = assay: Growth inhibition of human M14 cells after 48 hrs by SRB assay; format: functional; details: M14, 48 h
MDA-MB-468 = assay: Growth inhibition of human MDA-MB-468 cells after 48 hrs by SRB assay; format: functional; details: MDA-MB-468, 48 h
[6] = Growth inhibition of human BT549 cells after 48 hrs by SRB assay; format: functional; details: BT-549, 48 h
[7] = Growth inhibition of human SW620 cells after 48 hrs by SRB assay; format: functional; details: SW-620, 48 h
ACHN = assay: Growth inhibition of human ACHN cells after 48 hrs by SRB assay; format: functional
NCI-H460 = assay: Growth inhibition of human NCI-H460 cells after 48 hrs by SRB assay; format: functional; details: NCI-H460, 48 h
SK-MEL-2 = assay: Growth inhibition of human SK-MEL-2 cells after 48 hrs by SRB assay; format: functional; details: SK-MEL-2, 48 h
HT-29 = assay: Growth inhibition of human HT-29 cells after 48 hrs by SRB assay; format: functional; details: HT-29, 48 h
[8] = Inhibition of sheep brain tubulin polymerization by DAPI staining-based fluorimetric method; design: species or system Ovis aries
[9] = Growth inhibition of human SKOV3 cells after 48 hrs by SRB assay; format: functional; details: SK-OV-3, 48 h
[10] = Growth inhibition of human MOLT4 cells after 48 hrs by SRB assay; format: functional; details: MOLT-4, 48 h
[11] = Growth inhibition of human SF295 cells after 48 hrs by SRB assay; format: functional; details: SF-295, 48 h
[12] = Growth inhibition of human HL-60(TB) cells after 48 hrs by SRB assay; format: functional; details: HL-60, 48 h
[13] = Growth inhibition of human OVCAR4 cells after 48 hrs by SRB assay; format: functional; details: OVCAR-4, 48 h
U-251 = assay: Growth inhibition of human U251 cells after 48 hrs by SRB assay; format: functional; details: U-251, 48 h
[14] = Growth inhibition of human OVCAR8 cells after 48 hrs by SRB assay; format: functional; details: OVCAR-8, 48 h

SMILES	GI50 [1] [nM]	GI50 [2] [nM]	GI50 (SK-MEL-5) [nM]	GI50 (SN12C) [nM]	GI50 [3] [nM]	GI50 (NCI-H522) [nM]	GI50 (Malme-3M) [nM]	GI50 (A498) [nM]	GI50 [4] [nM]	GI50 [5] [nM]	GI50 (M14) [nM]	GI50 (MDA-MB-468) [nM]	GI50 [6] [nM]	GI50 [7] [nM]	GI50 (ACHN) [nM]	GI50 (NCI-H460) [nM]	GI50 (SK-MEL-2) [nM]	GI50 (HT-29) [nM]	GI50 [9] [nM]	GI50 [10] [nM]	further results
COc1ccc(C(=O)N2c3ccccc3Sc3ccccc32)cc1F	249	470	443	525	566	114	365	219	336	193	232	231	439	282	1050	340	352	283	306	323	GI50 (786-0): 609 nM; IC50 [8]: 11.8 µM; GI50 [11]: 251 nM; GI50 [12]: 305 nM; GI50 [13]: 1450 nM; GI50 (U-251): 353 nM; GI50 [14]: 420 nM
COc1ccc(C(=O)N2c3ccccc3Sc3ccccc32)c(F)c1	418	2380	759	1940	807	403	16200	330	921	377	371	413	676	458	831	485	531	380	4130	715	GI50 (786-0): 675 nM; IC50 [8]: 22.5 µM; GI50 [11]: 395 nM; GI50 [12]: 325 nM; GI50 [13]: 2010 nM; GI50 (U-251): 615 nM; GI50 [14]: 2200 nM
COc1ccc(C(=O)N2c3ccccc3Sc3ccccc32)c(OC)c1	322	1490	408	586	926	343	416	307	523	482	359	327	659	412	726	406	585	385	715	447	GI50 (786-0): 480 nM; GI50 [11]: 484 nM; GI50 [12]: 297 nM; GI50 [13]: 3170 nM; GI50 (U-251): 615 nM; GI50 [14]: 749 nM
O=C(c1ccc2c(c1)Sc1ccccc1N2)c1c[nH]c2ccccc12	360	876	452	708	683	338	532	172	428	239	319	301	366	293	671	347	309	358	380	642	GI50 (786-0): 672 nM; IC50 [8]: 38.9 µM; GI50 [11]: 314 nM; GI50 [12]: 398 nM; GI50 [13]: 4110 nM; GI50 (U-251): 413 nM; GI50 [14]: 556 nM
COc1ccc(C(=O)N2c3ccccc3Sc3ccccc32)c(C(F)(F)F)c1	332	467	692	1300	2200	320	25800	282	595	472	343	364	892	425	1330	383	677	362	794	406	IC50 [8]: 11.9 µM; GI50 [11]: 372 nM; GI50 [12]: 252 nM; GI50 [13]: 1980 nM; GI50 (U-251): 500 nM; GI50 [14]: 592 nM
